Reference: ChEMBL document CHEMBL3217625, “Syntheses of a new class of phenyl butyraldehyde-derived amines with in vitro trypanocide activities” (Medchemcomm, 2012)
Calls of active or inactive are those of the source. The calls are words filed in the database; no cut-off is given here.

Assays:
Trypanosoma cruzi [1] = test: Antiparasitic activity against Trypanosoma cruzi strain CL Brener epimastigotes assessed as growth inhibition after 72 hrs by neubauer chamber analysis; type: functional, organism-based
Trypanothione reductase [2] = target: T1, Trypanothione reductase (Trypanosoma cruzi, UniProt P28593); test: Time-dependent inhibition of Trypanosoma cruzi trypanothione reductase assessed as dissociation constants for enzyme-inhibitor binding using TS2 as substrate by DTNB-coupled assay; settings: read-out: Ki(app)
Trypanothione reductase [3] = target: T1, Trypanothione reductase; test: Time-dependent inhibition of Trypanosoma cruzi trypanothione reductase assessed as stabilization of enzyme-inhibitor complexes using TS2 as substrate by DTNB-coupled assay; settings: read-out: Ki(app)
Trypanosoma cruzi [4] = test: Antiparasitic activity against Trypanosoma cruzi strain CL Brener epimastigotes assessed as growth inhibition at 6 ug/ml after 72 hrs by neubauer chamber analysis; type: functional; settings: read-out: GI
Trypanosoma cruzi [5] = test: Antiparasitic activity against Trypanosoma cruzi strain CL Brener epimastigotes assessed as growth inhibition at 4 ug/ml after 72 hrs by neubauer chamber analysis in presence of 5 uM H2O2 (reference value: 4%); type: functional
[6] = target: Trypanothione reductase (Trypanosoma cruzi) (UniProt P28593); test: Reversible competitive slow-binding inhibition of Trypanosoma cruzi trypanothione reductase using TS2 as substrate by DTNB-coupled assay; settings: TDE = time-dependent effect
Trypanosoma cruzi [7] = test: Antiparasitic activity against Trypanosoma cruzi strain CL Brener epimastigotes assessed as growth inhibition at 4 ug/ml after 72 hrs by neubauer chamber analysis in presence of 20 uM H2O2 (Rvb= 3%); type: functional
Trypanosoma cruzi [8] = test: Antiparasitic activity against Trypanosoma cruzi strain CL Brener epimastigotes assessed as growth inhibition at 6 ug/ml after 72 hrs by neubauer chamber analysis in presence of 5 uM H2O2 (reference value: 0%); type: functional
Trypanosoma cruzi [9] = test: Antiparasitic activity against Trypanosoma cruzi strain CL Brener epimastigotes assessed as growth inhibition at 6 ug/ml after 72 hrs by neubauer chamber analysis in presence of 20 uM H2O2 (Rvb= 8%); type: functional
HeLa [10] = test: Cytotoxicity against human HeLa cells assessed as inhibition of cell proliferation at 5 ug/ml after 48 hrs by MTT assay; type: cell-based
Trypanosoma cruzi [11] = test: Antiparasitic activity against Trypanosoma cruzi strain CL Brener epimastigotes assessed as growth inhibition at 4 ug/ml after 72 hrs by neubauer chamber analysis in presence of 10 uM H2O2 (Rvb= 0%); type: functional
Trypanosoma cruzi [12] = test: Antiparasitic activity against Trypanosoma cruzi strain CL Brener epimastigotes assessed as growth inhibition at 4 ug/ml after 72 hrs by neubauer chamber analysis; type: functional; settings: read-out: GI
Trypanosoma cruzi [13] = test: Antiparasitic activity against Trypanosoma cruzi strain CL Brener epimastigotes assessed as growth inhibition at 6 ug/ml after 72 hrs by neubauer chamber analysis in presence of 10 uM H2O2 (Rvb= 7%); type: functional
HeLa [14] = test: Cytotoxicity against human HeLa cells assessed as inhibition of cell proliferation at 5 to 10 ug/ml after 48 hrs by MTT assay; type: cell-based
[15] = target: Trypanothione reductase (Trypanosoma cruzi) (UniProt P28593); test: Time-dependent inhibition of Trypanosoma cruzi trypanothione reductase using TS2 as substrate by DTNB-coupled assay

T1 sequence (P28593 whole entry): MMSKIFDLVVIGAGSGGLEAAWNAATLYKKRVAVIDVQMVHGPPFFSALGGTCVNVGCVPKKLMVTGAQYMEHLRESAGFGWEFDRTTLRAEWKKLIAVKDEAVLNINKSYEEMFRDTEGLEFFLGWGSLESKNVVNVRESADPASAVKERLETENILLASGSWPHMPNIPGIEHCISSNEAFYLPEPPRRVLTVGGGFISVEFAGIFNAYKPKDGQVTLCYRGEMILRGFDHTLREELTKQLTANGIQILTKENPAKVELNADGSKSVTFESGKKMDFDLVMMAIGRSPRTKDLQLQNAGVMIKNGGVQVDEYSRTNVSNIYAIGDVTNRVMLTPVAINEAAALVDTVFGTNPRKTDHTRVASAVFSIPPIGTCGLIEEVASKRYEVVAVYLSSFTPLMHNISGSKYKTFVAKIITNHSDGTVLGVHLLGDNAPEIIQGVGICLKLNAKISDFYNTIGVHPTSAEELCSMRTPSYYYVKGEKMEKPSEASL
Trypanothione reductase (Trypanosoma cruzi), sequence (P28593 whole entry, looked up): as the sequence (P28593 whole entry) above

Which IC50 (Trypanosoma cruzi [1]) does the source give for `C=CCc1cc(C)c(O)c(C)c1CCCCNCc1ccccc1` here?
Its IC50 is 183 µM.

Which Ki (Trypanothione reductase [2]) does the source give for `Cc1cc(C)c(CCCCN(CCCCc2c(C)cc(C)c(O)c2C)Cc2ccccc2)c(C)c1O` here?
Its Ki is 288 µM.

What about the Ki (Trypanothione reductase [3]) of the same compound?
Its Ki is 37 µM.

What about the inhibition of growth at 6 µg/mL (Trypanosoma cruzi [4]) of the same compound?
Its inhibition of growth at 6 µg/mL is 49%.

And the “growth inhibition (GI)” value (Trypanosoma cruzi [5])?
The value was 48%.

What about the inhibition [6] of the same compound?
Its inhibition is “tde”.

And the “growth inhibition (GI)” value (Trypanosoma cruzi [7])?
Its value is 50%.

And the “growth inhibition (GI)” value (Trypanosoma cruzi [8])?
Its value is 58%.

What about the “growth inhibition (GI)” value (Trypanosoma cruzi [9]) of the same compound?
Its value is 53%.

And the Activity (HeLa [10])?
Its Activity is “Non-toxic”.

What about the “growth inhibition (GI)” value (Trypanosoma cruzi [11]) of the same compound?
The value was 52%.

What about the inhibition of growth at 4 µg/mL (Trypanosoma cruzi [12]) of the same compound?
The inhibition of growth at 4 µg/mL was 50%.

What about the IC50 (Trypanosoma cruzi [1]) of the same compound?
The IC50 was 8 µM.

And the “growth inhibition (GI)” value (Trypanosoma cruzi [13])?
The value was 58%.

How did the Activity (HeLa [10]) turn out when `O=C(Cn1ccnc1[N+](=O)[O-])NCc1ccccc1` [BENZNIDAZOLE] was run?
The Activity was “Non-toxic”.

And the IC50 (Trypanosoma cruzi [1])?
The IC50 was 10 µM.

`O=C1CC[C@]23/C=C/C(=O)NCCCCNCCCNC(=O)/C=C\c4ccc(c2c4)O[C@@H]3C1` was tested. Which Ki (Trypanothione reductase [2]) did it give?
The Ki was 304 µM.

And the Ki (Trypanothione reductase [3])?
Its Ki is 114 µM.

Which results are given for `Cc1cc(C)c(CCCCNCc2ccccc2)c(C)c1O`?
Activity (HeLa [14]): Toxic; inhibition [15]: inactive; IC50 (Trypanosoma cruzi [1]): 10.1 µM

For `Cc1cc(C)c(CCCC=O)c(C)c1O`, which IC50 (Trypanosoma cruzi [1]) is on record?
Its IC50 is 485 µM.

Which results are given for `C=CCc1cc(C)c(O)c(C)c1CCCCN(CCCCc1c(CC=C)cc(C)c(O)c1C)Cc1ccccc1`?
Activity (HeLa [10]): Non-toxic; IC50 (Trypanosoma cruzi [1]): 19.8 µM

How did the IC50 (Trypanosoma cruzi [1]) turn out when `c1ccc(CCCNCc2ccccc2)cc1` was run?
Its IC50 is 104 µM.

How did the Activity (HeLa [10]) turn out when `CCCN(CCCc1ccccc1)CCCc1ccccc1` was run?
Its Activity is “Non-toxic”.

And the IC50 (Trypanosoma cruzi [1])?
Its IC50 is 18.6 µM.

Which Ki (Trypanothione reductase [2]) does the source give for `Nc1nc(N)nc(Nc2ccc([As]=O)cc2)n1` (stereo not drawn) [MELARSEN OXIDE] here?
Its Ki is 18 µM.

What about the Ki (Trypanothione reductase [3]) of the same compound?
Its Ki is 1.4 µM.

With `c1ccc(CCCN(CCCc2ccccc2)Cc2ccccc2)cc1` as the compound, how does the IC50 (Trypanosoma cruzi [1]) read?
Its IC50 is 34.6 µM.

`CCCN(CCCCc1c(C)cc(C)c(O)c1C)CCCCc1c(C)cc(C)c(O)c1C` was tested. Which IC50 (Trypanosoma cruzi [1]) did it give?
Its IC50 is 52.3 µM.

Which IC50 (Trypanosoma cruzi [1]) does the source give for `CCCNCCCc1ccccc1` here?
The IC50 was 241 µM.

For `CCCNCCCCc1c(C)cc(C)c(O)c1C`, which IC50 (Trypanosoma cruzi [1]) is on record?
The IC50 was 55.8 µM.
